# Test results from patent US20250144067A1, “PERSONALIZED STARVATION THERAPY FOR CANCER” (Faeth Therapeutics, Inc., priority 2021, published 2025).
# Counter-ions that a name gives are not always drawn.
# Tested on: NCI-H292 lung cancer cells
# Experiment: FDA drug screening, complete media vs cholesterol-free media without statin (TABLE 1)
# Type: cell-based, human
# Settings: Complete minus Cholesterol-free; >0 enhanced anti-cancer activity, about 0 neutral, <0 antagonist
row,Structure (SMILES),Difference
1,CC(C)COCC(CN(Cc1ccccc1)c1ccccc1)N1CCCC1 (centres unmarked) [Bepridil hydrochloride],−0.19
2,COc1c(O)cc2c(c1O)[C@@H]1O[C@H](CO)[C@@H](O)[C@H](O)[C@H]1OC2=O [Bergenin],−0.21
3,CCC(=O)OCC(=O)[C@@]1(OC(=O)CC)[C@@H](C)C[C@H]2[C@@H]3CCC4=CC(=O)C=C[C@]4(C)[C@@]3(F)[C@@H](O)C[C@@]21C [Betamethasone dipropionate],−0.28
4,C[C@H]1C[C@H]2[C@@H]3CCC4=CC(=O)C=C[C@]4(C)[C@@]3(F)[C@@H](O)C[C@]2(C)[C@@]1(O)C(=O)CO [Betamethasone],−0.03
5,CC(C)NCC(O)COc1ccc(CCOCC2CC2)cc1 (centres unmarked) [Betaxolol (hydrochloride)],−0.02
6,C=C(c1ccc(C(=O)O)cc1)c1cc2c(cc1C)C(C)(C)CCC2(C)C [Bexarotene],−0.22
7,CC(O)(CS(=O)(=O)c1ccc(F)cc1)C(=O)Nc1ccc(C#N)c(C(F)(F)F)c1 (centres unmarked) [Bicalutamide],0.00
8,CCOCCn1c(C2CCN(CCc3ccc(C(C)(C)C(=O)O)cc3)CC2)nc2ccccc21 [Bilastine],−0.27

# Same assay, conditions: Complete minus Cholesterol-free; greater than 0 enhanced anti-cancer activity, about 0 neutral, below 0 antagonist
row,Structure (SMILES),Difference
1,COc1ccc2cc3[n+](cc2c1OC)CCc1cc2c(cc1-3)OCO2.O.[Cl-] [Berberine (chloride hydrate)],−0.18
2,COc1ccc2cc3[n+](cc2c1OC)CCc1cc2c(cc1-3)OCO2.[Cl-] [Berberine (chloride)],−0.09
3,CNCCc1ccccn1 [Betahistine],−0.10
4,CC(C)NCC(O)COc1ccc(CCOCC2CC2)cc1 (centres unmarked) [Betaxolol],−0.10
5,C[C@@H](O)[C@H]1C(=O)N2C(C(=O)[O-])=C(SC3Cn4cnc[n+]4C3)[C@H](C)[C@H]12 (some centres unmarked) [Biapenem],−0.11

# Same assay, conditions: Complete minus Cholesterol-free; greater than 0 enhanced anti-cancer activity, about 0 neutral, below 0 antagonists
row,Structure (SMILES),Difference
1,C[N+](C)(C)CC(=O)O [Betaine (hydrochloride)],−0.76

# Same assay, conditions: NCI-H292 cells in cholesterol-free media without statin
row,Structure (SMILES),Cholesterol-free
1,C[N+](C)(C)CC(=O)O [Betaine (hydrochloride)],1.594

# Same assay, conditions: NCI-H292 cells in complete media
row,Structure (SMILES),Complete
1,C[N+](C)(C)CC(=O)O [Betaine (hydrochloride)],0.8295

# Same assay, conditions: NCI-H292 cells, FDA drug library screen, cholesterol-free media without statin
row,Structure (SMILES),Cholesterol-free
1,COc1ccc2cc3[n+](cc2c1OC)CCc1cc2c(cc1-3)OCO2.O.[Cl-] [Berberine (chloride hydrate)],0.263
2,COc1ccc2cc3[n+](cc2c1OC)CCc1cc2c(cc1-3)OCO2.[Cl-] [Berberine (chloride)],0.2752
3,CNCCc1ccccn1 [Betahistine],1.192
4,CC(C)NCC(O)COc1ccc(CCOCC2CC2)cc1 (centres unmarked) [Betaxolol],1.183
5,C[C@@H](O)[C@H]1C(=O)N2C(C(=O)[O-])=C(SC3Cn4cnc[n+]4C3)[C@H](C)[C@H]12 (some centres unmarked) [Biapenem],0.9795

# Same assay, conditions: NCI-H292 cells, FDA drug library screen, complete media
row,Structure (SMILES),Complete
1,COc1ccc2cc3[n+](cc2c1OC)CCc1cc2c(cc1-3)OCO2.O.[Cl-] [Berberine (chloride hydrate)],0.07956
2,COc1ccc2cc3[n+](cc2c1OC)CCc1cc2c(cc1-3)OCO2.[Cl-] [Berberine (chloride)],0.1873
3,CNCCc1ccccn1 [Betahistine],1.087
4,CC(C)NCC(O)COc1ccc(CCOCC2CC2)cc1 (centres unmarked) [Betaxolol],1.079
5,C[C@@H](O)[C@H]1C(=O)N2C(C(=O)[O-])=C(SC3Cn4cnc[n+]4C3)[C@H](C)[C@H]12 (some centres unmarked) [Biapenem],0.8733

# Same assay, conditions: NCI-H292 cells, cholesterol-free media without statin
row,Structure (SMILES),Cholesterol-free
1,CC(C)COCC(CN(Cc1ccccc1)c1ccccc1)N1CCCC1 (centres unmarked) [Bepridil hydrochloride],1.009
2,COc1c(O)cc2c(c1O)[C@@H]1O[C@H](CO)[C@@H](O)[C@H](O)[C@H]1OC2=O [Bergenin],0.9949
3,CCC(=O)OCC(=O)[C@@]1(OC(=O)CC)[C@@H](C)C[C@H]2[C@@H]3CCC4=CC(=O)C=C[C@]4(C)[C@@]3(F)[C@@H](O)C[C@@]21C [Betamethasone dipropionate],0.9149
4,C=C(c1ccc(C(=O)O)cc1)c1cc2c(cc1C)C(C)(C)CCC2(C)C [Bexarotene],1.341
5,CCOCCn1c(C2CCN(CCc3ccc(C(C)(C)C(=O)O)cc3)CC2)nc2ccccc21 [Bilastine],1.435

# Same assay, conditions: NCI-H292 cells, cholesterol-free media without statin, FDA drug library screen
row,Structure (SMILES),Cholesterol-free
1,C[C@H]1C[C@H]2[C@@H]3CCC4=CC(=O)C=C[C@]4(C)[C@@]3(F)[C@@H](O)C[C@]2(C)[C@@]1(O)C(=O)CO [Betamethasone],0.6463
2,CC(C)NCC(O)COc1ccc(CCOCC2CC2)cc1 (centres unmarked) [Betaxolol (hydrochloride)],0.8929
3,CC(O)(CS(=O)(=O)c1ccc(F)cc1)C(=O)Nc1ccc(C#N)c(C(F)(F)F)c1 (centres unmarked) [Bicalutamide],1.018

# Same assay, conditions: NCI-H292 cells, complete media
row,Structure (SMILES),Complete
1,CC(C)COCC(CN(Cc1ccccc1)c1ccccc1)N1CCCC1 (centres unmarked) [Bepridil hydrochloride],0.8157
2,COc1c(O)cc2c(c1O)[C@@H]1O[C@H](CO)[C@@H](O)[C@H](O)[C@H]1OC2=O [Bergenin],0.7827
3,CCC(=O)OCC(=O)[C@@]1(OC(=O)CC)[C@@H](C)C[C@H]2[C@@H]3CCC4=CC(=O)C=C[C@]4(C)[C@@]3(F)[C@@H](O)C[C@@]21C [Betamethasone dipropionate],0.6317
4,C=C(c1ccc(C(=O)O)cc1)c1cc2c(cc1C)C(C)(C)CCC2(C)C [Bexarotene],1.124

# Same assay, conditions: NCI-H292 cells, complete media, FDA drug library screen
row,Structure (SMILES),Complete
1,C[C@H]1C[C@H]2[C@@H]3CCC4=CC(=O)C=C[C@]4(C)[C@@]3(F)[C@@H](O)C[C@]2(C)[C@@]1(O)C(=O)CO [Betamethasone],0.6113
2,CC(C)NCC(O)COc1ccc(CCOCC2CC2)cc1 (centres unmarked) [Betaxolol (hydrochloride)],0.8739
3,CC(O)(CS(=O)(=O)c1ccc(F)cc1)C(=O)Nc1ccc(C#N)c(C(F)(F)F)c1 (centres unmarked) [Bicalutamide],1.016

# Tested on: NCI-H292 lung cancer cells
# Experiment: FDA drug screening, complete media vs cholesterol-free media with simvastatin (TABLE 2)
# Type: cell-based, human
# Settings: NCI-H292 cells, FDA drug library screen, cholesterol-free media with simvastatin 0.04 μM
row,Structure (SMILES),Cholesterol-free media + simvastatin (0.04 μM)
1,CC(C)COCC(CN(Cc1ccccc1)c1ccccc1)N1CCCC1 (centres unmarked) [Bepridil hydrochloride],1.312
2,C[C@H]1C[C@H]2[C@@H]3CCC4=CC(=O)C=C[C@]4(C)[C@@]3(F)[C@@H](O)C[C@]2(C)[C@@]1(O)C(=O)CO [Betamethasone],1.093
3,C=C(c1ccc(C(=O)O)cc1)c1cc2c(cc1C)C(C)(C)CCC2(C)C [Bexarotene],1.087
4,C[C@@H](O)[C@H]1C(=O)N2C(C(=O)[O-])=C(SC3Cn4cnc[n+]4C3)[C@H](C)[C@H]12 (some centres unmarked) [Biapenem],1.249
5,CC(O)(CS(=O)(=O)c1ccc(F)cc1)C(=O)Nc1ccc(C#N)c(C(F)(F)F)c1 (centres unmarked) [Bicalutamide],1.219
6,CCOCCn1c(C2CCN(CCc3ccc(C(C)(C)C(=O)O)cc3)CC2)nc2ccccc21 [Bilastine],1.167

# Same assay, conditions: NCI-H292 cells, FDA drug library screen, complete media
row,Structure (SMILES),Complete Media
1,CC(C)COCC(CN(Cc1ccccc1)c1ccccc1)N1CCCC1 (centres unmarked) [Bepridil hydrochloride],1.584
2,C[C@H]1C[C@H]2[C@@H]3CCC4=CC(=O)C=C[C@]4(C)[C@@]3(F)[C@@H](O)C[C@]2(C)[C@@]1(O)C(=O)CO [Betamethasone],0.9456
3,C=C(c1ccc(C(=O)O)cc1)c1cc2c(cc1C)C(C)(C)CCC2(C)C [Bexarotene],0.9865
4,C[C@@H](O)[C@H]1C(=O)N2C(C(=O)[O-])=C(SC3Cn4cnc[n+]4C3)[C@H](C)[C@H]12 (some centres unmarked) [Biapenem],1.117
5,CC(O)(CS(=O)(=O)c1ccc(F)cc1)C(=O)Nc1ccc(C#N)c(C(F)(F)F)c1 (centres unmarked) [Bicalutamide],1.09
6,CCOCCn1c(C2CCN(CCc3ccc(C(C)(C)C(=O)O)cc3)CC2)nc2ccccc21 [Bilastine],1.071

# Same assay, conditions: NCI-H292 cells, cholesterol-free media with simvastatin 0.04 μM; FDA drug library screen (TABLE 2)
row,Structure (SMILES),Cholesterol-free media + simvastatin (0.04 μM)
1,COc1ccc2cc3[n+](cc2c1OC)CCc1cc2c(cc1-3)OCO2.O.[Cl-] [Berberine (chloride hydrate)],0.3813
2,CC(C)NCC(O)COc1ccc(CCOCC2CC2)cc1 (centres unmarked) [Betaxolol],0.941

# Same assay, conditions: NCI-H292 cells, cholesterol-free media with simvastatin 0.04 μM; cell growth value in FDA drug screen
row,Structure (SMILES),Cholesterol-free media + simvastatin (0.04 μM)
1,COc1ccc2cc3[n+](cc2c1OC)CCc1cc2c(cc1-3)OCO2.[Cl-] [Berberine (chloride)],0.3544
2,COc1c(O)cc2c(c1O)[C@@H]1O[C@H](CO)[C@@H](O)[C@H](O)[C@H]1OC2=O [Bergenin],0.6754
3,CCC(=O)OCC(=O)[C@@]1(OC(=O)CC)[C@@H](C)C[C@H]2[C@@H]3CCC4=CC(=O)C=C[C@]4(C)[C@@]3(F)[C@@H](O)C[C@@]21C [Betamethasone dipropionate],0.5238
4,CC(C)NCC(O)COc1ccc(CCOCC2CC2)cc1 (centres unmarked) [Betaxolol (hydrochloride)],1.08

# Same assay, conditions: NCI-H292 cells, complete media; FDA drug library screen (TABLE 2)
row,Structure (SMILES),Complete Media
1,COc1ccc2cc3[n+](cc2c1OC)CCc1cc2c(cc1-3)OCO2.O.[Cl-] [Berberine (chloride hydrate)],0.3495
2,CC(C)NCC(O)COc1ccc(CCOCC2CC2)cc1 (centres unmarked) [Betaxolol],0.9172

# Same assay, conditions: NCI-H292 cells, complete media; cell growth value in FDA drug screen
row,Structure (SMILES),Complete Media
1,COc1ccc2cc3[n+](cc2c1OC)CCc1cc2c(cc1-3)OCO2.[Cl-] [Berberine (chloride)],0.3946
2,COc1c(O)cc2c(c1O)[C@@H]1O[C@H](CO)[C@@H](O)[C@H](O)[C@H]1OC2=O [Bergenin],0.7494
3,CCC(=O)OCC(=O)[C@@]1(OC(=O)CC)[C@@H](C)C[C@H]2[C@@H]3CCC4=CC(=O)C=C[C@]4(C)[C@@]3(F)[C@@H](O)C[C@@]21C [Betamethasone dipropionate],0.6181
4,CC(C)NCC(O)COc1ccc(CCOCC2CC2)cc1 (centres unmarked) [Betaxolol (hydrochloride)],1.11

# Same assay, conditions: NCI-H292 cells, drug in cholesterol-free media with simvastatin 0.04 μM
row,Structure (SMILES),Cholesterol-free media + simvastatin (0.04 μM)
1,CNCCc1ccccn1 [Betahistine],1.266
2,C[N+](C)(C)CC(=O)O [Betaine (hydrochloride)],1.292

# Same assay, conditions: NCI-H292 cells, drug in complete media
row,Structure (SMILES),Complete Media
1,CNCCc1ccccn1 [Betahistine],1.062
2,C[N+](C)(C)CC(=O)O [Betaine (hydrochloride)],1.099

# Same assay, conditions: complete media minus cholesterol-free media + simvastatin (0.04 μM); >0 enhanced anti-cancer activity, about 0 neutral, <0 antagonist
row,Structure (SMILES),Difference
1,COc1ccc2cc3[n+](cc2c1OC)CCc1cc2c(cc1-3)OCO2.O.[Cl-] [Berberine (chloride hydrate)],−0.03
2,CC(C)NCC(O)COc1ccc(CCOCC2CC2)cc1 (centres unmarked) [Betaxolol],−0.02

# Same assay, conditions: complete media minus cholesterol-free media + simvastatin; >0 enhanced anti-cancer activity, about 0 neutral, <0 antagonist
row,Structure (SMILES),Difference
1,CC(C)COCC(CN(Cc1ccccc1)c1ccccc1)N1CCCC1 (centres unmarked) [Bepridil hydrochloride],0.27
2,COc1ccc2cc3[n+](cc2c1OC)CCc1cc2c(cc1-3)OCO2.[Cl-] [Berberine (chloride)],0.04
3,COc1c(O)cc2c(c1O)[C@@H]1O[C@H](CO)[C@@H](O)[C@H](O)[C@H]1OC2=O [Bergenin],0.07
4,CCC(=O)OCC(=O)[C@@]1(OC(=O)CC)[C@@H](C)C[C@H]2[C@@H]3CCC4=CC(=O)C=C[C@]4(C)[C@@]3(F)[C@@H](O)C[C@@]21C [Betamethasone dipropionate],0.09
5,CC(C)NCC(O)COc1ccc(CCOCC2CC2)cc1 (centres unmarked) [Betaxolol (hydrochloride)],0.03

# Same assay, conditions: complete media vs cholesterol-free media + simvastatin (0.04 μM); >0 enhanced anti-cancer activity, about 0 neutral, <0 antagonist
row,Structure (SMILES),Difference
1,CNCCc1ccccn1 [Betahistine],−0.20
2,C[N+](C)(C)CC(=O)O [Betaine (hydrochloride)],−0.19
3,C[C@H]1C[C@H]2[C@@H]3CCC4=CC(=O)C=C[C@]4(C)[C@@]3(F)[C@@H](O)C[C@]2(C)[C@@]1(O)C(=O)CO [Betamethasone],−0.15
4,C=C(c1ccc(C(=O)O)cc1)c1cc2c(cc1C)C(C)(C)CCC2(C)C [Bexarotene],−0.10
5,C[C@@H](O)[C@H]1C(=O)N2C(C(=O)[O-])=C(SC3Cn4cnc[n+]4C3)[C@H](C)[C@H]12 (some centres unmarked) [Biapenem],−0.13
6,CC(O)(CS(=O)(=O)c1ccc(F)cc1)C(=O)Nc1ccc(C#N)c(C(F)(F)F)c1 (centres unmarked) [Bicalutamide],−0.13
7,CCOCCn1c(C2CCN(CCc3ccc(C(C)(C)C(=O)O)cc3)CC2)nc2ccccc21 [Bilastine],−0.10
